Molecules are shown by their SMILES.

One test deals with PARP-1 (poly[ADP-ribose] polymerase 1) enzyme (Homo sapiens (Human), UniProt P09874). Description: PARP-1 (poly[ADP-ribose] polymerase 1) enzyme inhibitory ability, Trevigen assay kit. Type of test: biochemical. The settings on record: 1 nM compound; read-out: PAR P-1 Inhibitory ability at 1 nM. The method in brief: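 After the 1 hour PARP reaction, wells were washed with PBS containing 0.1% triton X-100 and then PBS. Strep-HRP (50 μL) was bound for 1 hour, wells washed again, and 50 μL of TACS-sapphire substrate developed 15 minutes in the dark. Reactions were stopped with 50 μL of 5% phosphoric acid and absorbance read at 450 nm on a Victor3 reader.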
PARP-1 (poly[ADP-ribose] polymerase 1) enzyme, sequence (P09874 whole entry): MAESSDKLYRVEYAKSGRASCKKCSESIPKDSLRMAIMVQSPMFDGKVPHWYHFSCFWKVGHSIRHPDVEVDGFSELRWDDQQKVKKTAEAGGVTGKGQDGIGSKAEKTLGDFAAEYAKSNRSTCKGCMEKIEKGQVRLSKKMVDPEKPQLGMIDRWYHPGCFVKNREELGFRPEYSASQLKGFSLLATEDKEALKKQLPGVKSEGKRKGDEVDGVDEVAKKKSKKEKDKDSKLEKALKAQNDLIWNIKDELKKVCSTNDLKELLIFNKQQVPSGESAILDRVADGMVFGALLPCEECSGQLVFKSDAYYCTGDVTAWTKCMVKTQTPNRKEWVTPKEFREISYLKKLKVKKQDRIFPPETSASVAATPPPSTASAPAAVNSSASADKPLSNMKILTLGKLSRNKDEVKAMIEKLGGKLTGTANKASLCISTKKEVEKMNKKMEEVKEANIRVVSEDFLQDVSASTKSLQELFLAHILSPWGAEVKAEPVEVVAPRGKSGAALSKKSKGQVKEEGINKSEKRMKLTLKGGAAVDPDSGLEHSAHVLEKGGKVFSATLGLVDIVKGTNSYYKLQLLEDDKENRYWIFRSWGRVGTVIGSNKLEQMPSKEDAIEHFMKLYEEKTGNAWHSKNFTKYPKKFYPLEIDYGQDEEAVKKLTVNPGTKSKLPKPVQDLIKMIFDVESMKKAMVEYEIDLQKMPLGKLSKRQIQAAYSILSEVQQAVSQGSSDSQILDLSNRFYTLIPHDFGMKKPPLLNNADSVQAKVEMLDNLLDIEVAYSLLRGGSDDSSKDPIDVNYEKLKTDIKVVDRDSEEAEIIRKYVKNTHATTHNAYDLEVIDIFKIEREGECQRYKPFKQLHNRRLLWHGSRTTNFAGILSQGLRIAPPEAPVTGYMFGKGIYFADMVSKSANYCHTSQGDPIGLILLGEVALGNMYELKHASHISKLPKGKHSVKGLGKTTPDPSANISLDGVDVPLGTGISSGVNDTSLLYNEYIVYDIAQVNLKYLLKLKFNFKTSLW
For `Cc1cc(F)cc2c(=O)[nH]c(CCC(=O)N3CCN(c4ccc(Cl)cc4)CC3)cc12` [Example 155, 3-(3-(4-(4-chlorophenyl)piperazin-1-yl)-3-oxopropyl)-7-fluoro-5-methylisoquinolin-1(2H)-one], the inhibition at 0.001 µM was less than 50%. As for `Cc1cc(F)cc2c(=O)[nH]c(CCC(=O)N3CCN(c4cc(C#N)ccc4F)CC3)cc12` [Example 156, 4-fluoro-3-(4-(3-(7-fluoro-5-methyl-1-oxo-1,2-dihydroisoquinolin-3-yl)propanoyl)piperazin-1-yl)benzonitrile], the inhibition at 0.001 µM is less than 50%.

Consider `Cc1cc(F)cc2c(=O)[nH]c(CCC(=O)N3CCN(c4cc(F)ccc4C#N)CC3)cc12` [Example 157, 4-fluoro-2-(4-(3-(7-fluoro-5-methyl-1-oxo-1,2-dihydroisoquinolin-3-yl)propanoyl)piperazin-1-yl)benzonitrile], for which the inhibition at 0.001 µM was less than 50%. On to `Cc1cc(F)cc2c(=O)[nH]c(CCC(=O)N3CCN(c4ccc(F)c(C#N)c4)CC3)cc12` [Example 158, 2-fluoro-5-(4-(3-(7-fluoro-5-methyl-1-oxo-1,2-dihydroisoquinolin-3-yl)propanoyl)piperazin-1-yl)benzonitrile], for which the inhibition at 0.001 µM was less than 50%.

`Cc1cc(F)cc2c(=O)[nH]c(CCC(=O)N3CCN(c4ccc(F)cc4C#N)CC3)cc12` [Example 159, 5-fluoro-2-(4-(3-(7-fluoro-5-methyl-1-oxo-1,2-dihydroisoquinolin-3-yl)propanoyl)piperazin-1-yl)benzonitrile]: the inhibition at 0.001 µM was less than 50%. Regarding `Cc1cc(F)cc2c(=O)[nH]c(CCC(=O)N3CC=C(c4cc(C#N)ccc4F)CC3)cc12` [Example 160, 4-fluoro-3-(1-(3-(7-fluoro-5-methyl-1-oxo-1,2-dihydroisoquinolin-3-yl)propanoyl)-1,2,3,6-tetrahydropyridin-4-yl)benzonitrile], the inhibition at 0.001 µM was less than 50%. Regarding `Cc1cc(F)cc2c(=O)[nH]c(CCC(=O)N3CC=C(c4ccc(F)cc4C#N)CC3)cc12` [Example 161, 5-fluoro-2-(1-(3-(7-fluoro-5-methyl-1-oxo-1,2-dihydroisoquinolin-3-yl)propanoyl)-1,2,3,6-tetrahydropyridin-4-yl)benzonitrile], the inhibition at 0.001 µM is less than 50%. The same measure, in the same setting: as for `Cc1cc(F)cc2c(=O)[nH]c(CCC(=O)N3CC=C(c4ccc(F)cc4F)CC3)cc12` [Example 162, 3-(3-(4-(2,4-difluorophenyl)-3,6-dihydropyridin-1(2H)-yl)-3-oxopropyl)-7-fluoro-5-methylisoquinolin-1(2H)-one], the figure is less than 50%; as for `Cc1cc(F)cc2c(=O)[nH]c(CCC(=O)N3CC=C(c4cc(F)cc(C#N)c4)CC3)cc12` [Example 163, 3-fluoro-5-(1-(3-(7-fluoro-5-methyl-1-oxo-1,2-dihydroisoquinolin-3-yl)propanoyl)-1,2,3,6-tetrahydropyridin-4-yl)benzonitrile], less than 50%.

As for `Cc1cc(F)cc2c(=O)[nH]c(CCC(=O)N3CC=C(c4cccc(F)c4)CC3)cc12` [Example 164, 7-fluoro-3-(3-(4-(3-fluorophenyl)-3,6-dihydropyridin-1(2H)-yl)-3-oxopropyl)-5-methylisoquinolin-1(2H)-one], the inhibition at 0.001 µM is less than 50%.

As for `Cc1cc(F)cc2c(=O)[nH]c(CCC(=O)N3CCN(c4cc(F)cc(C#N)c4)CC3)cc12` [Example 166, 3-fluoro-5-(4-(3-(7-fluoro-5-methyl-1-oxo-1,2-dihydroisoquinolin-3-yl)propanoyl)piperazin-1-yl)benzonitrile], the inhibition at 0.001 µM was less than 50%.

For the compound `Cc1cc(F)cc2c(=O)[nH]c(CCC(=O)N3CCN(c4cccc(F)c4)CC3)cc12` [Example 167, 7-fluoro-3-(3-(4-(3-fluorophenyl)piperazin-1-yl)-3-oxopropyl)-5-methylisoquinolin-1(2H)-one], the inhibition at 0.001 µM is less than 50%. For `Cc1cc(F)cc2c(=O)[nH]c(CCC(=O)N3CC=C(c4ccnc(F)c4)CC3)cc12` [Example 168, 7-fluoro-3-(3-(2′-fluoro-3,6-dihydro-[4,4′-bipyridine]-1(2H)-yl)-3-oxopropyl)-5-methylisoquinolin-1(2H)-one], the inhibition at 0.001 µM is less than 50%.

In the case of `O=C(CCc1cc2cccc(F)c2c(=O)[nH]1)N1CCN(C(=O)C2CCCCC2)CC1` [Example 170, 3-(3-(4-(cyclohexanecarbonyl)piperazin-1-yl)-3-oxopropyl)-8-fluoroisoquinolin-1(2H)-one], the inhibition at 0.001 µM is less than 50%. On the same count and under the same terms, as for `Cc1ccc(F)c2c(=O)[nH]c(CCC(=O)N3CCN(C(=O)C4CCCCC4)CC3)cc12` [Example 171, 3-(3-(4-(cyclohexanecarbonyl)piperazin-1-yl)-3-oxopropyl)-8-fluoro-5-methylisoquinolin-1(2H)-one], the figure is less than 50%. As for `O=C(CCc1cc2ccc(F)cc2c(=O)[nH]1)N1CCN(C(=O)C2CCCCC2)CC1` [Example 172, 3-(3-(4-(cyclohexanecarbonyl)piperazin-1-yl)-3-oxopropyl)-7-fluoroisoquinolin-1(2H)-one], the inhibition at 0.001 µM is less than 50%.

`Cc1cc(F)cc2c(=O)[nH]c(CCC(=O)N3CCN(C(=O)C4CCCCC4)CC3)cc12` [Example 173, 3-(3-(4-(cyclohexanecarbonyl)piperazin-1-yl)-3-oxopropyl)-7-fluoro-5-methylisoquinolin-1(2H)-one]: the inhibition at 0.001 µM is less than 50%.

Regarding `O=C(CCc1cc2cccc(F)c2c(=O)[nH]1)N1CCN(C(=O)C2CCCC2)CC1` [Example 174, 3-(3-(4-(cyclopentanecarbonyl)piperazin-1-yl)-3-oxopropyl)-8-fluoroisoquinolin-1(2H)-one], the inhibition at 0.001 µM is less than 50%.

As for `Cc1ccc(F)c2c(=O)[nH]c(CCC(=O)N3CCN(C(=O)C4CCCC4)CC3)cc12` [Example 175, 3-(3-(4-(cyclopentanecarbonyl)piperazin-1-yl)-3-oxopropyl)-8-fluoro-5-methylisoquinolin-1(2H)-one], the inhibition at 0.001 µM was less than 50%.

Take `O=C(CCc1cc2ccc(F)cc2c(=O)[nH]1)N1CCN(C(=O)C2CCCC2)CC1` [Example 176, 3-(3-(4-(cyclopentanecarbonyl)piperazin-1-yl)-3-oxopropyl)-7-fluoroisoquinolin-1(2H)-one]: the inhibition at 0.001 µM is less than 50%. With `Cc1cc(F)cc2c(=O)[nH]c(CCC(=O)N3CCN(C(=O)C4CCCC4)CC3)cc12` [Example 177, 3-(3-(4-(cyclopentanecarbonyl)piperazin-1-yl)-3-oxopropyl)-7-fluoro-5-methylisoquinolin-1(2H)-one], the inhibition at 0.001 µM is less than 50%.

Take `O=C(CCc1cc2cccc(F)c2c(=O)[nH]1)N1CCN(C(=O)C2CCC2)CC1` [Example 178, 3-(3-(4-(cyclobutanecarbonyl)piperazin-1-yl)-3-oxopropyl)-8-fluoroisoquinolin-1(2H)-one]: the inhibition at 0.001 µM was less than 50%.

As for `Cc1ccc(F)c2c(=O)[nH]c(CCC(=O)N3CCN(C(=O)C4CCC4)CC3)cc12` [Example 179, 3-(3-(4-(cyclobutanecarbonyl)piperazin-1-yl)-3-oxopropyl)-8-fluoro-5-methylisoquinolin-1(2H)-one], the inhibition at 0.001 µM is less than 50%. With `O=C(CCc1cc2ccc(F)cc2c(=O)[nH]1)N1CCN(C(=O)C2CCC2)CC1` [Example 180, 3-(3-(4-(cyclobutanecarbonyl)piperazin-1-yl)-3-oxopropyl)-7-fluoroisoquinolin-1(2H)-one], the inhibition at 0.001 µM was less than 50%. For the compound `Cc1cc(F)cc2c(=O)[nH]c(CCC(=O)N3CCN(C(=O)C4CCC4)CC3)cc12` [Example 181, 3-(3-(4-(cyclobutanecarbonyl)piperazin-1-yl)-3-oxopropyl)-7-fluoro-5-methylisoquinolin-1(2H)-one], the inhibition at 0.001 µM was less than 50%. On to `O=C(CCc1cc2cccc(F)c2c(=O)[nH]1)N1CCN(C(=O)C2CC2)CC1` [Example 182, 3-(3-(4-(cyclopropanecarbonyl)piperazin-1-yl)-3-oxopropyl)-8-fluoroisoquinolin-1(2H)-one], for which the inhibition at 0.001 µM was less than 50%.

With `Cc1ccc(F)c2c(=O)[nH]c(CCC(=O)N3CCN(C(=O)C4CC4)CC3)cc12` [Example 183, 3-(3-(4-(cyclopropanecarbonyl)piperazin-1-yl)-3-oxopropyl)-8-fluoro-5-methylisoquinolin-1(2H)-one], the inhibition at 0.001 µM is less than 50%. Same read-out and setting: as for `O=C(CCc1cc2ccc(F)cc2c(=O)[nH]1)N1CCN(C(=O)C2CC2)CC1` [Example 184, 3-(3-(4-(cyclopropanecarbonyl)piperazin-1-yl)-3-oxopropyl)-7-fluoroisoquinolin-1(2H)-one], the figure is less than 50%. For `Cc1cc(F)cc2c(=O)[nH]c(CCC(=O)N3CCN(C(=O)C4CC4)CC3)cc12` [Example 185, 3-(3-(4-(cyclopropanecarbonyl)piperazin-1-yl)-3-oxopropyl)-7-fluoro-5-methylisoquinolin-1(2H)-one], the inhibition at 0.001 µM was less than 50%. For the compound `CC(C)C(=O)N1CCN(C(=O)CCc2cc3cccc(F)c3c(=O)[nH]2)CC1` [Example 186, 8-fluoro-3-(3-(4-isobutyrylpiperazin-1-yl)-3-oxopropyl)isoquinolin-1(2H)-one], the inhibition at 0.001 µM was less than 50%. On to `Cc1ccc(F)c2c(=O)[nH]c(CCC(=O)N3CCN(C(=O)C(C)C)CC3)cc12` [Example 187, 8-fluoro-3-(3-(4-isobutyrylpiperazin-1-yl)-3-oxopropyl)-5-methylisoquinolin-1(2H)-one], for which the inhibition at 0.001 µM is less than 50%.

In the case of `CC(C)C(=O)N1CCN(C(=O)CCc2cc3ccc(F)cc3c(=O)[nH]2)CC1` [Example 188, 7-fluoro-3-(3-(4-isobutyrylpiperazin-1-yl)-3-oxopropyl)isoquinolin-1(2H)-one], the inhibition at 0.001 µM was less than 50%.

Consider `Cc1cc(F)cc2c(=O)[nH]c(CCC(=O)N3CCN(C(=O)C(C)C)CC3)cc12` [Example 189, 7-fluoro-3-(3-(4-isobutyrylpiperazin-1-yl)-3-oxopropyl)-5-methylisoquinolin-1(2H)-one], for which the inhibition at 0.001 µM is less than 50%.

Staying with this test, now noted: PARP-1 enzyme activity.
Usually IC50 stands for the midpoint of a concentration-inhibition curve. A higher IC50 goes with weaker potency. Compound `Cc1ccc(F)c2c(=O)[nH]c(CCC(=O)N3CCN(C(=O)C4CC4)CC3)cc12` [Example 183, 3-(3-(4-(cyclopropanecarbonyl)piperazin-1-yl)-3-oxopropyl)-8-fluoro-5-methylisoquinolin-1(2H)-one] had an IC50 of 14.7 nM.

The values are drawn from patent US12459899B2, “Isoquinolinone derivatives, method for preparing the same, and pharmaceutical composition for preventing or treating poly(ADP-ribose) polymerase-1-related diseases, comprising the same as active ingredient” (DIGMBIO. INC., priority 2019, dated 2025).
